Data on 2 compounds can be found in patent publication US4748177A, “Guanine derivatives” (Warner-Lambert Company, priority 1985, dated 1988).

The test system of this data set is T-cells. The data set is described as follows: standard test of selective cytotoxicity for T-cells in the presence of 2'-deoxyguanosine. The data set is classed as cell-based. As to conditions: in the presence of 10 μM of 2'-deoxyguanosine. On the procedure:
[…] activity was measured radiochemically by measuring the formation of [^14 -C]-hypoxanthine from [^14 -C]-inosine [Biomedicine, 33, 39 (1980)] using human erythrocyte as the enzyme source. The same compounds also were found by a standard test [Science, 214, 1137, (1981)] to be selectively cytotoxic for T-cells in the presence of 2'-deoxyguanosine at a similar concentration range. For example, 8-amino-9-[(4-methylphenyl)methyl]guanine is selectively cytotoxic to T-cells at a concentration of about 3.1 μM in the presence of 10 μM of 2'-deoxyguanosine. Similarly, 8-amino-9-[(4-methoxyphenyl)methyl]guanine is selectively cytotoxic to T-cells at concentration of about 1.1 μM in the presence of 10 μM of 2'-deoxyguanosine. On the other hand, these compounds were nontoxic to B-cells in the presence or absence of the same amount of 2'-deoxyguanosine. Since T-cells play a central role in immune response, use of the compounds of the invention is contemplated for the immunoregulation of rejection in transplantation and autoimmune disease such as rheumatoid arthritis, systemic lupus erythematosus, inflammatory bowel disease, cancer, juvenile diabetes, myasthenia gravis, multiple sclerosis, and viral diseases. […]

As for `COc1ccc(Cn2c(N)nc3c(=O)[nH]c(N)nc32)cc1` [8-amino-9-[(4-methoxyphenyl)methyl]guanine], the “concentration at which selectively cytotoxic to T-cells” value is recorded as “about 1.1 μM”.

Consider `Cc1ccc(Cn2c(N)nc3c(=O)[nH]c(N)nc32)cc1` [8-amino-9-[(4-methylphenyl)methyl]guanine], for which the “concentration at which selectively cytotoxic to T-cells” value is “about 3.1 μM”.
